Tested on: rat platelet aggregation
Assay: Ex-vivo rat platelet aggregation induced by arachidonic acid after oral treatment (Born's method, PRP)
Format: in vivo
Conditions: for % aggregation upon addition of 1 mM arachidonic acid: rat PRP, mean, n = 8; for reduction in platelet aggregation (in words): 1 mM arachidonic acid
Procedure: A study was carried out to assess the effect of a combination of a fibrate (fenofibrate) and aspirin on platelet aggregation in this study, fenofibrate and aspirin were co-administered to rats by the oral route (p.o.) and the effects on arachidonic acid-induced platelet aggregation were observed.
40 male OFA-SD (IOPS Caw) rats (C.River, France), weighing in the target range of 300 to 350 g, were included in the study.
They were housed in a temperature (19.5-24.5° C.) and relative humidity (45-65%) controlled room with a 12-h light/dark cycle, with ad libitum access to filtered tap-water and standard pelleted laboratory chow (SAFE, France) throughout the study. Upon receipt at animal facilities, they were housed 4 per cage and at least a 5-day acclimatization period was observed. Animals were individually identified on the tail.
The animals of this study were split into 5 groups of 8 animals as follows:
Group 2: Fenofibrate, 300 mg/kg, p.o.×10 days
Group 3 Aspirin 3 mg/kg, p.o.×1 day
Group 4: Fenofibrate, 300 mg/kg, p.o×10 days+Aspirin 3 mg/kg, p.o.×1 day
Group 5: Aspirin 30 mg/kg, p.o.×1 day
At the end of the acclimatization period, rats were identified on the tail and divided into 10 boxes of 4 rats.
They were then weighed and treated orally once a day during ten consecutive days with the vehicle (1% methylcellulose aqueous solution) or the test substance fenofibrate. On the last day of treatment, the animals were also treated with aspirin as described above. Aspirin (acetyl saliclylic acid) was obtained from Sigma, France and fenofibrate was supplied by Laboratoires Fournier, France. Test substances and the vehicle were administered by p.o. route once a day, in a volume of 5 ml/kg adjusted to the animal weight measured every day before administration.
On the last day of treatment (day 10), 2 hours after the oral gavage, rats were anaesthetised with isoflurane, and blood samples were collected from the abdominal aorta into plastic tubes containing heparin.
PRP (platelet-rich plasma) was then produced by centrifuging the blood obtained at 250 g for 10 minutes using a GPKR centrifuge (Beckman, France). Then samples were then centrifuged again at 2000 g for 10 minutes to obtain the platelet-poor plasma (PPP).
After a platelet count, each PRP sample was adjusted to 6×10^8 platelets/mL with the needed volume of homologous PPP (using T540 Cell Counter, Beckman, France).
Platelet aggregation was recorded using Born's method (Born, Nature, 1962, 194, 927-929) with 0.3 mL of the platelet suspension in disposable glass cuvettes placed in the turbidometric aggregometer (Chrono-Dual 440 aggregometer, Beckman Coulter, France) and stirred at 1100 rev.min^−1 at 37° C.
Platelet aggregation was induced by Arachidonic acid [AA] for each PRP sample tested.
Results were reported as the aggregation amplitude measured in mm and expressed as percentage of maximal aggregation.
Statistical analysis consisted in a one-way analysis of variance followed by multiple comparisons versus the vehicle group (Dunnett's test) on % aggregation values. Where the equal variance test failed, a Kruskall-Wallis one-way analysis of variance on ranks was proposed. A difference is considered significant for p<0.05.

Row | Structure (SMILES) | % aggregation upon addition of 1 mM arachidonic acid (Fenofibrate 300 mg/kg p.o. x 10 days, blood 2 h after last gavage) [%] | reduction in platelet aggregation (in words) (fenofibrate alone (300 mg/kg)) | % aggregation upon addition of 1 mM arachidonic acid (Aspirin 3 mg/kg p.o. x 1 day, blood 2 h after gavage) [%] | % aggregation upon addition of 1 mM arachidonic acid (Aspirin 30 mg/kg p.o. x 1 day, p < 0.05 vs Control) [%] | reduction in platelet aggregation (in words) (aspirin alone at 3 mg/kg)
1 | CC(C)OC(=O)C(C)(C)Oc1ccc(C(=O)c2ccc(Cl)cc2)cc1 [Fenofibrate, 2-[4-(4-chlorobenzoyl)phenoxy]-2-methyl-propanoic acid, 1-methylethyl ester] | 94.2 | no reduction in platelet aggregation | – | – | –
2 | CC(=O)Oc1ccccc1C(=O)O [Aspirin, Acetylsalicylic acid] | – | – | 85.0 | 0.4 | no reduction in platelet aggregation
